Where no end group is shown, it is not given here.
How the values were obtained:
[1] = target: purified HLA DRB1 *0101 (Homo sapiens, UniProt P01903+P01911, A100R/D57E/F55L/F60I/F76Y/I96L/L162R/M171V/P40L/Q125E/R42F/V115G/Y59C); test: IC50nM to purified HLA | DRB1 *0101
Description: (§1) Table printed on a drawing sheet, FIG. 1
Head of the field: IC50nM to purified HLA | DRB1 *0101
(§2) First copying reader's note: The comma is the decimal sign and the point a thousands separator (e.g. 21.831); some values are printed bold or italic and some SEQ ID NOs underlined, with no legend on the sheet.
Where the first naming reader finds the target: head: IC50nM to purified HLA | DRB1 *0101

[2] = target: purified HLA DRB1 *0301 (Homo sapiens, UniProt P01903+P01911, A100K/A102G/A103R/A169T/F55Y/I96L/K41T/L162R/M171V/P40S/Q125H/Q178H/Q39Y/R42S/S66N/T106N/T262R/W38E/Y61H); test: IC50nM to purified HLA | DRB1 *0301
Sequence of purified HLA DRB1 *0301 (P01903 26-254 limits assumed, other chains not shown): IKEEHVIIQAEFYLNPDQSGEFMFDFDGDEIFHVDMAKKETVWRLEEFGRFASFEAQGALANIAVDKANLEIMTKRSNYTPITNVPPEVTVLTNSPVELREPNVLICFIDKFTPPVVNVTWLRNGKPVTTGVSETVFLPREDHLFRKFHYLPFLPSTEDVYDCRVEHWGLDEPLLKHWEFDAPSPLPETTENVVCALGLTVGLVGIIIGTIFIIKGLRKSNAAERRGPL
Description: as §1
Head of the field: IC50nM to purified HLA | DRB1 *0301
as §2
Where the first naming reader finds the target: head: IC50nM to purified HLA | DRB1 *0301

[3] = target: purified HLA DRB1 *0401 (Homo sapiens, UniProt P01903+P01911, A100K/A169T/F76Y/I96L/K127E/L162R/M171V/N62H/P40V/Q125Y/R42H/S133A/S149N/S66Y/V115G/V209L/W38E); test: IC50nM to purified HLA | DRB1 *0401
Description: as §1
Head of the field: IC50nM to purified HLA | DRB1 *0401
as §2
Where the first naming reader finds the target: head: IC50nM to purified HLA | DRB1 *0401

[4] = target: purified HLA DRB1 *0404 (Homo sapiens, UniProt P01903+P01911, A100R/A169T/F76Y/I96L/K127E/L162R/M171V/N62H/P40V/Q125Y/R42H/S133A/S149N/S66Y/V209L/W38E); test: IC50nM to purified HLA | DRB1 *0404
Description: as §1
Head of the field: IC50nM to purified HLA | DRB1 *0404
as §2
Where the first naming reader finds the target: head: IC50nM to purified HLA | DRB1 *0404

[5] = target: purified HLA DRB1 *0405 (Homo sapiens, UniProt P01903+P01911, A100R/A169T/D86S/F76Y/I96L/K127E/L162R/M171V/N62H/P40V/Q125Y/R42H/S133A/S149N/S66Y/V115G/V209L/W38E); test: IC50nM to purified HLA | DRB1 *0405
Description: as §1
Head of the field: IC50nM to purified HLA | DRB1 *0405
as §2
Where the first naming reader finds the target: head: IC50nM to purified HLA | DRB1 *0405

[6] = target: purified HLA DRB1 *0701 (Homo sapiens, UniProt P01903+P01911, A100R/A102G/A103Q/D57E/D86V/E43K/F76Y/K127E/L162R/M171V/P40G/Q125H/Q99D/R33Q/R42Y/R54Q/S133A/S66F/T210M/V115G/Y107V/Y59L/Y89S); test: IC50nM to purified HLA | DRB1 *0701
Description: as §1
Head of the field: IC50nM to purified HLA | DRB1 *0701
as §2
Where the first naming reader finds the target: head: IC50nM to purified HLA | DRB1 *0701

[7] = target: purified HLA DRB1 *0802 (Homo sapiens, UniProt P01903+P01911, A100R/A103L/A169T/F76Y/H45Y/I96F/K41T/L162R/M171V/P40S/Q125H/Q178H/Q39Y/Q99D/R218S/R42G/S66Y/V115G/W38E); test: IC50nM to purified HLA | DRB1 *0802
Description: as §1
Head of the field: IC50nM to purified HLA | DRB1 *0802
as §2
Where the first naming reader finds the target: head: IC50nM to purified HLA | DRB1 *0802

[8] = target: purified HLA DRB1 *0901 (Homo sapiens, UniProt P01903+P01911, A100R/A103E/D57H/D86V/F55Y/F60I/F76Y/I96F/K127E/L162R/M171V/P40D/Q125H/Q99R/R33Q/R42F/S133A/S66N/T210M/V115G/W38K/Y107V/Y59G/Y89S); test: IC50nM to purified HLA | DRB1 *0901
Description: as §1
Head of the field: IC50nM to purified HLA | DRB1 *0901
as §2
Where the first naming reader finds the target: head: IC50nM to purified HLA | DRB1 *0901

[9] = target: purified HLA DRB1 *1101 (Homo sapiens, UniProt P01903+P01911, A100R/A169T/A87E/I96F/K41T/L162R/M171V/P40S/Q125H/Q178H/Q39Y/Q99D/R42S/S66Y/T262R/V115G/W38E); test: IC50nM to purified HLA | DRB1 *1101
Sequence of purified HLA DRB1 *1101 (P01903 26-254 limits assumed, other chains not shown): as above
Description: as §1
Head of the field: IC50nM to purified HLA | DRB1 *1101
as §2
Where the first naming reader finds the target: head: IC50nM to purified HLA | DRB1 *1101

[10] = target: purified HLA DRB1 *1302 (Homo sapiens, UniProt P01903+P01911, A100E/A169T/K41T/L162R/M171V/P40S/Q125H/Q178H/Q39Y/Q99D/R42S/S66N/T262R/V115G/W38E/Y61H); test: IC50nM to purified HLA | DRB1 *1302
Sequence of purified HLA DRB1 *1302 (P01903 26-254 limits assumed, other chains not shown): as above
Description: as §1
Head of the field: IC50nM to purified HLA | DRB1 *1302
as §2
Where the first naming reader finds the target: head: IC50nM to purified HLA | DRB1 *1302

[11] = target: purified HLA DRB1 *1501 (Homo sapiens, UniProt P01903+P01911); test: IC50nM to purified HLA | DRB1 *1501
Description: as §1
Head of the field: IC50nM to purified HLA | DRB1 *1501
as §2
Where the first naming reader finds the target: head: IC50nM to purified HLA | DRB1 *1501

[12] = target: purified HLA DRB4 *0101 (Homo sapiens, UniProt P01903+P13762, G164S); test: IC50nM to purified HLA | DRB4 *0101
Sequence of purified HLA DRB4 *0101 (P01903 26-254 limits assumed): as the sequence (P01903 26-254 limits assumed, other chains not shown) above
Sequence of purified HLA DRB4 *0101 (P13762 whole entry G164S): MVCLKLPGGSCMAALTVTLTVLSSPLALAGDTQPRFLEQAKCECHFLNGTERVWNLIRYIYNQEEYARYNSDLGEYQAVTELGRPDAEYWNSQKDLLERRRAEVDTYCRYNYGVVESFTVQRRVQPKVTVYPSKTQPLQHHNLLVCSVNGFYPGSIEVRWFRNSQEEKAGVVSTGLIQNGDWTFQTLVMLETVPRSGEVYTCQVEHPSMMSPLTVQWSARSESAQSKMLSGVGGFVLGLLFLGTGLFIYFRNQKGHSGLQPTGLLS
Description: as §1
Head of the field: IC50nM to purified HLA | DRB4 *0101
as §2
Where the first naming reader finds the target: head: IC50nM to purified HLA | DRB4 *0101

[13] = target: purified HLA DRB5 *0101 (Homo sapiens, UniProt P01903+Q30154); test: IC50nM to purified HLA | DRB5 *0101
Description: as §1
Head of the field: IC50nM to purified HLA | DRB5 *0101
as §2
Where the first naming reader finds the target: head: IC50nM to purified HLA | DRB5 *0101

IC50 [1] [µM] | IC50 [2] [µM] | IC50 [3] [µM] | IC50 [4] [µM] | IC50 [5] [µM] | IC50 [6] [µM] | IC50 [7] [µM] | IC50 [8] [µM] | IC50 [9] [µM] | IC50 [10] [µM] | IC50 [11] [µM] | IC50 [12] [µM] | IC50 [13] [µM] | Molecule
 | 0.371 | 0.002 | 0.0011 |  | 0.61 |  | 0.048 |  | 219 | 0.025 | 0.129 | 0.029 | AAAFFVAAFTLHAAA [SEQ ID NO: 14]
0.043 |  | 0.0045 | 0.0061 | 0.0084 |  |  | 0.113 | 0.057 |  | 0.066 | 12.5 | 0.0094 | AAAFFVAAFTLKADA [SEQ ID NO: 18]
0.0065 |  | 0.0038 | 0.0041 | 0.027 |  |  | 0.031 | 0.042 | 0.064 | 0.07 | 0.876 |  | AAAFFVAANTLHAAA [SEQ ID NO: 15]
0.0034 | 0.14 | 0.004 | 0.0045 | 0.0095 |  |  |  | 0.046 | 0.187 | 0.103 | 5.52 | 0.0044 | AAAFFVAANTLKADA [SEQ ID NO: 19]
0.0057 | 0.227 | 0.0024 | 0.0073 | 0.031 | 0.074 |  | 0.031 | 0.027 | 2.81 | 0.032 | 0.517 | 0.0099 | AAAFFVAAWTLKAAA [SEQ ID NO: 11]
0.0072 |  | 0.0053 | 0.0027 | 0.022 | 0.091 | 0.02 | 0.032 | 0.065 | 7.05 | 0.064 |  |  | AAAFFVAAWTLKADA [SEQ ID NO: 16]
0.0038 |  | 0.005 | 0.006 | 0.033 | 0.045 | 0.0067 |  | 0.055 | 0.856 | 0.025 |  | 0.0073 | AAAFFVAAYTLKADA [SEQ ID NO: 17]
0.0047 | 0.262 | 0.0031 | 0.0048 |  | 0.11 |  | 0.045 |  | 1.53 | 0.02 | 0.384 | 0.011 | AAAHFVAAWTLKAAA [SEQ ID NO: 25]
0.0039 |  | 0.0034 | 0.0024 |  | 0.035 | 0.0076 | 0.024 |  | 0.656 |  | 0.209 | 0.022 | AAAKFVAAWTLHAAA [SEQ ID NO: 6]
0.0038 | 0.174 | 0.0029 |  |  | 0.043 | 0.0086 | 0.033 |  | 0.038 | 0.101 | 0.606 | 0.022 | AAAWFVAANTLHAAA [SEQ ID NO: 10]
0.0043 | 0.111 |  | 0.002 |  | 0.084 |  | 0.033 | 0.032 | 4.24 | 0.036 | 0.447 |  | AAAWFVAAWTLHAAA [SEQ ID NO: 7]
 | 0.161 | 0.0031 | 0.0038 |  |  | 0.0085 | 0.035 |  | 2.93 | 0.031 | 0.566 | 0.0093 | AAAWFVAAWTLKAAA [SEQ ID NO: 5]
0.0039 | 0.16 | 0.0038 | 0.0032 | 0.024 | 0.091 |  | 0.019 |  | 3.11 | 0.0062 | 0.46 | 0.025 | AAAWFVAAYTLHAAA [SEQ ID NO: 8]
0.0027 |  | 0.0016 | 0.0014 | 0.0066 |  | 0.0061 |  | 0.011 | 0.917 |  | 0.291 | 0.0059 | AAAYFVAAWTLKAAA [SEQ ID NO: 20]
 | 0.077 | 0.0023 | 0.0019 | 0.0073 | 0.065 | 0.0052 | 0.011 |  | 0.83 | 0.004 | 0.445 |  | AAAYFVAAYTLHAAA [SEQ ID NO: 22]

Molecule | IC50 [1] [µM] | IC50 [2] [µM] | IC50 [3] [µM] | IC50 [4] [µM] | IC50 [5] [µM] | IC50 [6] [µM] | IC50 [7] [µM] | IC50 [8] [µM] | IC50 [9] [µM] | IC50 [10] [µM] | IC50 [11] [µM] | IC50 [12] [µM] | IC50 [13] [µM]
CC(C)C[C@H](NC(=O)[C@@H](NC(=O)[C@H](Cc1c[nH]c2ccccc12)NC(=O)[C@H](C)NC(=O)[C@H](C)NC(=O)[C@@H](NC(=O)[C@H](Cc1ccccc1)NC(=O)[C@H](CCCCN)NC(=O)[C@H](C)N)C(C)C)[C@@H](C)O)C(=O)N[C@@H](CCCCN)C(=O)N[C@@H](C)C(=O)N[C@@H](C)C(=O)N[C@@H](C)C(=O)O [SEQ ID NO: 3] | 0.004 | 0.289 | 0.0014 | 0.00079 | 0.032 | 0.097 | 0.0095 | 0.05 | 0.0091 | 0.367 | 0.037 | 0.447 | 0.019
AAAKFVAAWTLKAAA [SEQ ID NO: 4] | 0.0033 | 0.209 |  | 0.0029 | 0.025 | 0.049 | 0.0052 |  | 0.011 | 0.648 | 0.0098 | 0.207 | 0.0054
